Drawing on ChEMBL document CHEMBL2346556, “Synthesis, receptor binding and activity of iso and azakainoids” (Bioorg Med Chem Lett, 2013), this text covers Activity and EC50 for three molecules.

Calls of active or inactive are those of the source. The calls are words filed in the database; no cut-off is given here.

The species entered for test [1] is Rattus norvegicus. Briefly: Displacement of [3H]NMDA from rat brain unspecified glutamate receptor by competitive binding assay.
A short description of test [2]: (§1) Displacement of [3H]glutamic acid from rat brain unspecified glutamate receptor by competitive binding assay.
Test [3] concerns Aplysia californica. The test is described as follows: Agonist activity at glutamate receptor in Aplysia californica buccal S cluster neurons assessed as membrane depolarization at 1 mM by patch clamp technique. (In general: The patch-clamp technique gives a direct electrical read-out from membranes.)
The species named for test [4] is Rattus norvegicus. The test is described as follows: Displacement of [3H]kainic acid from rat brain unspecified glutamate receptor by competitive binding assay. Background: Loss of bound radioactivity is the signal in a displacement assay; it reports binding, not function.
The test system of test [5] is Aplysia californica. Briefly: Agonist activity at glutamate receptor in Aplysia californica buccal S cluster neurons assessed as receptor non-desensitization at 30 mV holding potential at 1 mM by patch clamp technique.
The species named for test [6] is Rattus norvegicus. Briefly: Displacement of [3H]AMPA from rat brain unspecified glutamate receptor by competitive binding assay.
The species named for test [7] is Rattus norvegicus. The description is as §1.

One may read the EC50 as the concentration giving half of the maximal effect. Higher therefore signals lower potency in that assay. Regarding `O=C(O)C[C@H]1CNN[C@@H]1C(=O)O` (relative stereo), the result in the test filed under Rattus norvegicus [1], in the test filed under Rattus norvegicus [4] and in the test filed under Rattus norvegicus [6] was inactive. For the same molecule, in test [2], the EC50 turned out to be 12 µM. Also, the result in the test on Aplysia californica [3] and in the test on Aplysia californica [5] was Active.
Take `O=C(O)C[C@H]1CCN[C@@H]1C(=O)O` (relative stereo): the outcome in the test listed under Rattus norvegicus [1], in the test filed under Rattus norvegicus [7], in the test listed under Rattus norvegicus [4] and in the test listed under Rattus norvegicus [6] was inactive.
On to `O=C(O)C[C@H]1CNC[C@@H]1C(=O)O` (relative stereo), for which the outcome in the test filed under Rattus norvegicus [1], in the test listed under Rattus norvegicus [7], in the test filed under Rattus norvegicus [4] and in the test filed under Rattus norvegicus [6] was inactive.
